From ChEMBL document CHEMBL1201862, “PubChem BioAssay data set” (2004)
The source made the active and inactive calls.

Target: T1, Oxysterols receptor LXR-beta (Homo sapiens, UniProt P55055);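 note: agonist activity at LXR measured by a cell-based luminescence readout across a dose range, run as a counterscreen for daf-12 agonists; HEK293 cells with Gal4-LXR fusion and GAL4-driven luciferase reporter; potency for activation of Gal4-LXR reporter so compounds are agonists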
T1 sequence (P55055 whole entry): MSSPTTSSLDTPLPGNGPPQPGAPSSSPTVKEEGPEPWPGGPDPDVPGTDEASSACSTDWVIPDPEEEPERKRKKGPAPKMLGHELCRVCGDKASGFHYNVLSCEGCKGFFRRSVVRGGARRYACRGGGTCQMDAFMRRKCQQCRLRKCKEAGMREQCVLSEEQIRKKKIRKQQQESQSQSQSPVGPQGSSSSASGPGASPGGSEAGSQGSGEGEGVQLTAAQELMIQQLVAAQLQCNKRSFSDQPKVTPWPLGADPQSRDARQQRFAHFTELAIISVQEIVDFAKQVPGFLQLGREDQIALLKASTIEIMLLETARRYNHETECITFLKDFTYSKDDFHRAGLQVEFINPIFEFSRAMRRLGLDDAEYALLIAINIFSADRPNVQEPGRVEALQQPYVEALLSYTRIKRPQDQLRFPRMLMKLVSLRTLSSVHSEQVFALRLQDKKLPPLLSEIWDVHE
Format: functional, cell-based

EC50	Structure (SMILES)
> 67.5 µM (inactive)	CCOC(=O)c1c(C)oc2c1cc(O)c1ccccc12
> 67.5 µM (inactive)	C#CCNC(=O)C[C@H]1C[C@@]2(C(=O)OC)C(=C[C@H](C(C)C)O[C@@H]2C2CC2)N(CCCCCCCC)C1=O
> 67.5 µM (inactive)	c1cncc(-c2noc(-c3ccc4ccccc4c3)n2)c1
> 67.4 µM (inactive)	CCCCSc1ncnc2c1ncn2C1CCCCO1 (stereo unspecified)
> 67.6 µM (inactive)	O=C(NNCc1ccccc1)c1ccccn1

Tested on: not listed separately
Assay: inhibitors of clade B AD8 Env fusion, dose response, cell-based, cherry-pick (AID 652062);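 note: luciferase signal from cell-cell fusion driven by HIV-1 clade B AD8 Env; potency is for inhibitors of fusion seen as a drop in luminescence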
Format: functional

Structure (SMILES)	AC50
C[C@H]1CNC(=O)c2c(C(=O)N3CCN(c4ccccc4)CC3)ncn21	7.04 µM (active)

Target: T2, Sentrin-specific protease 8 (Homo sapiens, UniProt Q96LD8);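 note: luminescence read-out of SENP8 inhibition, dose-response confirmation following an ultra-high-throughput screen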
T2 sequence (Q96LD8 whole entry): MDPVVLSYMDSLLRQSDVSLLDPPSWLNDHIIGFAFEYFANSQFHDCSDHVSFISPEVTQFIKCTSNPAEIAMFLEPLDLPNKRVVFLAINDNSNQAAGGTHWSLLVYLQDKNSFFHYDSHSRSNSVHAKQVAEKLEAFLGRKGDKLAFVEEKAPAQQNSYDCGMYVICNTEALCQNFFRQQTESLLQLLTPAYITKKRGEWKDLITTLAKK
Format: functional

Structure (SMILES)	IC50
CC(=O)c1sc(Nc2nc3ccc(F)cc3s2)nc1C	16 µM (active)
Cc1ccc(-c2noc(CSc3ccccc3)n2)cc1	13.7 µM (active)
COc1ccc(/C=C2/CCc3ccccc3C2=O)cc1OC	17 µM (active)
COc1ccc(-n2nc3cc(N)c(Br)cc3n2)cc1	11 µM (active)
Cc1ccc(OCc2nc(-c3cccs3)no2)c([N+](=O)[O-])c1	10.2 µM (active)
Cc1cc(C)c(O)c(-c2cc(C(=O)Nc3cccnc3)[nH]n2)c1	> 100 µM (inactive)
CNC(=O)c1ccsc1NC(=O)c1ccc2c(c1)CCCC2	17.9 µM (active)

Tested on: not listed separately
Assay: inhibitors of HIV Env-driven cell fusion, dose response, cherry-pick (AID 652057)
Format: functional, cell-based

Structure (SMILES)	AC50
C[C@H]1CNC(=O)c2c(C(=O)N3CCN(c4ccccc4)CC3)ncn21	4.6 µM (active)
CCCC#Cc1ccc2c(c1)O[C@@H](CN(C)C(=O)C1CCCCC1)[C@H](C)CN([C@H](C)CO)S2(=O)=O	21.7 µM (active)

Target: Heat shock protein HSP 90-alpha (Homo sapiens, UniProt P07900)
Format: functional, organism-based

AC50	Structure (SMILES)
< 0.195 µM (active)	Cc1cc(C)c(S(=O)(=O)N2CCC(C(=O)NCc3ccc(Cl)cc3Cl)CC2)c(C)c1

Target: T3, Sentrin-specific protease 7 (Homo sapiens, UniProt Q9BQF6);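 note: Luminescence-based dose-response confirmation of ultra-high-throughput screening hits, measuring inhibition of SENP7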
T3 sequence (Q9BQF6 whole entry): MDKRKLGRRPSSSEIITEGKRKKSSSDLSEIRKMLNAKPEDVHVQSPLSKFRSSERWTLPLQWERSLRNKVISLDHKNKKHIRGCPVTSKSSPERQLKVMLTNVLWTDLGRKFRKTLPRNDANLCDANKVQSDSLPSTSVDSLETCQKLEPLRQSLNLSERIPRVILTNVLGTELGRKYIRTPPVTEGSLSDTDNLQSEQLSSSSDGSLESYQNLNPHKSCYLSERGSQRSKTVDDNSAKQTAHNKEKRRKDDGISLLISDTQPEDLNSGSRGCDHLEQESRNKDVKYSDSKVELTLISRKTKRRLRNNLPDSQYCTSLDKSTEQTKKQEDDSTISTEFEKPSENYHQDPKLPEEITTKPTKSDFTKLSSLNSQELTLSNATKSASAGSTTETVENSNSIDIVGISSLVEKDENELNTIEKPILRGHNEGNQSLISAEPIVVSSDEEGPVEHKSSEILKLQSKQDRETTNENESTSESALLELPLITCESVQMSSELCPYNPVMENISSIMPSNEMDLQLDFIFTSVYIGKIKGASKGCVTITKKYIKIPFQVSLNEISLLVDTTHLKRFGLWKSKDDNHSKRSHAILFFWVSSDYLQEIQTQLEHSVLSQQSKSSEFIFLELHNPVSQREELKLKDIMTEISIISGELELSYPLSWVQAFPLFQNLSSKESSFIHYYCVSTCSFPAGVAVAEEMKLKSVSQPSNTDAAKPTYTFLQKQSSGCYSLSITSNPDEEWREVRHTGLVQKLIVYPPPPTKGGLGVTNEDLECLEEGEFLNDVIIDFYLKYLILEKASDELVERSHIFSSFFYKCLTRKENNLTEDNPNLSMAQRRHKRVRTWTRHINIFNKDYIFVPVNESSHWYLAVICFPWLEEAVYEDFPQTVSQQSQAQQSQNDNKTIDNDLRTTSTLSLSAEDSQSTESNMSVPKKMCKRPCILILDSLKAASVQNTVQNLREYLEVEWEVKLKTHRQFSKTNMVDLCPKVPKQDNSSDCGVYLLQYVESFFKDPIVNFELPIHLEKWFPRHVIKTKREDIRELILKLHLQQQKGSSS
Format: functional

IC50	Structure (SMILES)
5.6 µM (active)	CC(=O)c1sc(Nc2nc3ccc(F)cc3s2)nc1C
6.8 µM (active)	Cc1ccc(-c2noc(CSc3ccccc3)n2)cc1
8.88 µM (active)	COc1ccc(/C=C2/CCc3ccccc3C2=O)cc1OC
5.03 µM (active)	COc1ccc(-n2nc3cc(N)c(Br)cc3n2)cc1
5.51 µM (active)	Cc1ccc(OCc2nc(-c3cccs3)no2)c([N+](=O)[O-])c1
4.68 µM (active)	Cc1cc(C)c(O)c(-c2cc(C(=O)Nc3cccnc3)[nH]n2)c1
5.37 µM (active)	CNC(=O)c1ccsc1NC(=O)c1ccc2c(c1)CCCC2

Target: T4, Sentrin-specific protease 6 (Homo sapiens, UniProt Q9GZR1);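 note: Luminescence-based dose-response confirmatory assay of SENP6 inhibition, following up an ultra-high-throughput screen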
T4 sequence (Q9GZR1 whole entry): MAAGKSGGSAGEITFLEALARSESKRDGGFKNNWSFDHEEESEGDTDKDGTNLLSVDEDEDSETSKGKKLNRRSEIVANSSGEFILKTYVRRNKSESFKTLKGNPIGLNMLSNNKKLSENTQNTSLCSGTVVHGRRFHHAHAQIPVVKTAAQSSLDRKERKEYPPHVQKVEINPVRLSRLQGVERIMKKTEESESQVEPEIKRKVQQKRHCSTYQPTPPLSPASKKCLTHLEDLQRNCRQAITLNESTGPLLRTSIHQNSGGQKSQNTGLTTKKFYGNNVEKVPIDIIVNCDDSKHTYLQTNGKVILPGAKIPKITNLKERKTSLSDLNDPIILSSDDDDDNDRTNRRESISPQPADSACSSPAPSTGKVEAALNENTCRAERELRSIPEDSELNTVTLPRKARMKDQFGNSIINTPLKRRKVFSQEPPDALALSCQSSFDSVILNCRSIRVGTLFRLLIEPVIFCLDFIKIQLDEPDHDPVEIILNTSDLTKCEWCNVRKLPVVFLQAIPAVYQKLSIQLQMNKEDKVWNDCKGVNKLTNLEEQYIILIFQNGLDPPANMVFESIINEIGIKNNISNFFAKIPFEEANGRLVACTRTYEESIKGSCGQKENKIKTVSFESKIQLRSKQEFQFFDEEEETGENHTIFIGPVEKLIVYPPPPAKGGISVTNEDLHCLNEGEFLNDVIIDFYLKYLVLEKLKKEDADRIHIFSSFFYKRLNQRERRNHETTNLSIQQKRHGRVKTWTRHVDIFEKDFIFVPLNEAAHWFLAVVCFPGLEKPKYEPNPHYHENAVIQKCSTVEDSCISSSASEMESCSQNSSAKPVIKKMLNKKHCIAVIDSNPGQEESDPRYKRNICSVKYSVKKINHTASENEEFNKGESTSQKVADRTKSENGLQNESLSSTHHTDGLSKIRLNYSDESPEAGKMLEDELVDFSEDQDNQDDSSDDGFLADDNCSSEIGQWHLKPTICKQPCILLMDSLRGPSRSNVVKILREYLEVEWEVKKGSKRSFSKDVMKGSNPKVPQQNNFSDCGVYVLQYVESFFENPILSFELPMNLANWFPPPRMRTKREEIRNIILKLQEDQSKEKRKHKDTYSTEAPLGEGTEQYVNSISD
Format: functional

IC50	Structure (SMILES)
11.2 µM (active)	CC(=O)c1sc(Nc2nc3ccc(F)cc3s2)nc1C
36.4 µM (active)	Cc1ccc(-c2noc(CSc3ccccc3)n2)cc1
18 µM (active)	COc1ccc(/C=C2/CCc3ccccc3C2=O)cc1OC
8.1 µM (active)	COc1ccc(-n2nc3cc(N)c(Br)cc3n2)cc1
11.9 µM (active)	Cc1ccc(OCc2nc(-c3cccs3)no2)c([N+](=O)[O-])c1
> 100 µM (inactive)	Cc1cc(C)c(O)c(-c2cc(C(=O)Nc3cccnc3)[nH]n2)c1
8.31 µM (active)	CNC(=O)c1ccsc1NC(=O)c1ccc2c(c1)CCCC2

Target: T5, Short transient receptor potential channel 4 (Mus musculus, UniProt Q9QUQ5)
T5 sequence (Q9QUQ5 whole entry): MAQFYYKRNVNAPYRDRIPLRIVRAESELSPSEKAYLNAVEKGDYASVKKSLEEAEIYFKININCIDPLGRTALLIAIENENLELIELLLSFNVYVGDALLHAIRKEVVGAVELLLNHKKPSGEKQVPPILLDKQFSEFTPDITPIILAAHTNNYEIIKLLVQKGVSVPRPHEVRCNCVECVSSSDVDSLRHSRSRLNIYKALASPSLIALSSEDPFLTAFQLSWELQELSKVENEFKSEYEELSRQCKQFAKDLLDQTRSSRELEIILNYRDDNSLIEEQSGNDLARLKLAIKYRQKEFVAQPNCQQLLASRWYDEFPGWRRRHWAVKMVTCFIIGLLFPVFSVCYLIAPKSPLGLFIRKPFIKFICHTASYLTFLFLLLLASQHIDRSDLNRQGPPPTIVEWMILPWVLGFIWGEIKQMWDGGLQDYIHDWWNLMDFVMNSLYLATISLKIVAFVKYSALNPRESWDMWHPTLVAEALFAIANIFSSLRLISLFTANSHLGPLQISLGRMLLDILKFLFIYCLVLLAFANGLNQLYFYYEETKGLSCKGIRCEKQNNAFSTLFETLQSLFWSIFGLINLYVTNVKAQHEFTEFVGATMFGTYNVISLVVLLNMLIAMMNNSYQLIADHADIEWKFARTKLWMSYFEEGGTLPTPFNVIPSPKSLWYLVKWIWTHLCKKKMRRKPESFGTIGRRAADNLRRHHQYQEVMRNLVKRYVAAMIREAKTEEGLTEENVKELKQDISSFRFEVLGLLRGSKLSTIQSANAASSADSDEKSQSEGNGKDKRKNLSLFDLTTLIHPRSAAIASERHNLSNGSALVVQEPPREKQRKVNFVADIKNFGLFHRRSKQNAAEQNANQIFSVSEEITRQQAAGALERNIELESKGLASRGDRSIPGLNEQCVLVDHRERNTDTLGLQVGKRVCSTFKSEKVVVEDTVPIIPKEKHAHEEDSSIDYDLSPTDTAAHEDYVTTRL
Assay: mouse TRPC4 channel inhibitors, dose response, cell-based, HEK293 TRPC4/mu-opioid, Fluo-4 calcium (AID 434942);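 note: potency of inhibitors blocking the TRPC4 calcium response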
Format: functional

EC50	Structure (SMILES)
1.68 µM (active)	CN(Cc1ccccc1)C(=O)CSc1nnc(-c2ccco2)n1-c1ccccc1
3.35 µM (active)	Cc1ccc(N=C(S)N(CCCN(C)C)Cc2cc3cc4c(cc3nc2O)OCO4)c(C)c1
3.35 µM (active)	CC(C)(C)CC(C)(C)NCC(O)COc1ccc2c(c1)CCC2 (stereo unspecified)
5.31 µM (active)	C=CCc1ccccc1OCC(CN1CCCCC1)OC(C)=O (stereo unspecified)
5.96 µM (active)	CCc1c(C(=O)N2CCCN(C)CC2)csc1C
2.37 µM (active)	COc1ccc(CN(C)C(=O)c2ccc(NC(=O)CC3SC(N4CCCC4)=NC3=O)cc2)c(OC)c1 (stereo unspecified)

Tested on: not listed separately
Assay: ZM109 Env clade C HIV-1 fusion inhibitors, dose response, HeLa effector, CEM target cells, luciferase, cherry-pick (AID 652058)
Format: functional, cell-based

Structure (SMILES)	AC50
C[C@H]1CNC(=O)c2c(C(=O)N3CCN(c4ccccc4)CC3)ncn21	3.25 µM (active)
CCCC#Cc1ccc2c(c1)O[C@@H](CN(C)C(=O)C1CCCCC1)[C@H](C)CN([C@H](C)CO)S2(=O)=O	13.3 µM (active)

Tested on: not listed separately
Assay: off-target signal loss in HeLa-CEM21 co-culture – HeLa F-luc CTL cells, cherry-picked, counter-screen for HIV-1 Env fusion inhibitor project, dose response (AID 652040);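 note: potency for signal decrease marking cytotoxic or nonspecific inhibition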
Format: functional, cell-based

Structure (SMILES)	AC50
C[C@H]1CNC(=O)c2c(C(=O)N3CCN(c4ccccc4)CC3)ncn21	9.62 µM (active)

Target: T6, Caspase-3 (Homo sapiens, UniProt P42574);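 note: Dose-response selectivity test against caspase-3 for candidate inhibitors of sentrin-specific proteases (SENPs)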
T6 sequence (P42574 whole entry): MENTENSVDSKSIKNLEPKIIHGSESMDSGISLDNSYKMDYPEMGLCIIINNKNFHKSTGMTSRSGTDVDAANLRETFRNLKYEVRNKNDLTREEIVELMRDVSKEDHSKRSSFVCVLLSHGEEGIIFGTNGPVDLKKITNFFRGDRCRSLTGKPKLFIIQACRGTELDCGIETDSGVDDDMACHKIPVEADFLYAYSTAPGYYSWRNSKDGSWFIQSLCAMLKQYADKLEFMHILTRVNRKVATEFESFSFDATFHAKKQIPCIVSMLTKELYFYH
Format: functional

IC50	Structure (SMILES)
18.8 µM (active)	CC(=O)c1sc(Nc2nc3ccc(F)cc3s2)nc1C
25.5 µM (active)	Cc1ccc(-c2noc(CSc3ccccc3)n2)cc1
32.2 µM (active)	COc1ccc(/C=C2/CCc3ccccc3C2=O)cc1OC
13.3 µM (active)	COc1ccc(-n2nc3cc(N)c(Br)cc3n2)cc1
21.4 µM (active)	Cc1ccc(OCc2nc(-c3cccs3)no2)c([N+](=O)[O-])c1
31.4 µM (active)	Cc1cc(C)c(O)c(-c2cc(C(=O)Nc3cccnc3)[nH]n2)c1
28.4 µM (active)	CNC(=O)c1ccsc1NC(=O)c1ccc2c(c1)CCCC2
